Results from ChEMBL document CHEMBL3393038, “Prenylated flavonoids and resveratrol derivatives isolated from Artocarpus communis with the ability to overcome TRAIL resistance” (2015).
Calls of active or inactive are those of the source. No cut-off for these calls is given here.

What was measured:
[1] = tested on: AGS; test: Induction of apoptosis in TRAIL-resistant human AGS cells assessed as decrease in cell viability at 40 uM after 24 hrs in presence of TRAIL (reference value: 9%); assay type: functional
[2] = tested on: AGS; test: Induction of apoptosis in TRAIL-resistant human AGS cells assessed as decrease in cell viability at 7.5 uM after 24 hrs in presence of TRAIL (reference value: 9%); assay type: functional
[3] = tested on: AGS; test: Induction of apoptosis in TRAIL-resistant human AGS cells assessed as decrease in cell viability at 17.5 uM after 24 hrs in presence of TRAIL (reference value: 9%); assay type: functional
[4] = tested on: AGS; test: Induction of apoptosis in TRAIL-resistant human AGS cells assessed as decrease in cell viability at 2 uM after 24 hrs in presence of TRAIL (reference value: 9%); assay type: functional
[5] = tested on: AGS; test: Induction of apoptosis in TRAIL-resistant human AGS cells assessed as decrease in cell viability at 5 uM after 24 hrs in presence of TRAIL (reference value: 9%); assay type: functional
[6] = tested on: AGS; test: Induction of apoptosis in TRAIL-resistant human AGS cells assessed as decrease in cell viability at 20 uM after 24 hrs in presence of TRAIL (reference value: 9%); assay type: functional
[7] = tested on: AGS; test: Induction of apoptosis in TRAIL-resistant human AGS cells assessed as ROS-mediated increase in death receptor 5 protein level at 3 uM after 6 hrs pretreated with NAC by Western blotting analysis; assay type: functional, cell-based
[8] = tested on: AGS; test: Induction of apoptosis in TRAIL-resistant human AGS cells assessed as population of apoptotic cells after 6 hrs by annexin-V-FLOUS/ propidium iodide staining based flow cytometry; assay type: functional
[9] = tested on: AGS; test: Induction of apoptosis in TRAIL-resistant human AGS cells assessed as fold increase in caspase 3/7 at 5 uM after 24 hrs by Caspase-Glo 3/7 assay kit in presence of TRAIL; assay type: functional
[10] = tested on: AGS; test: Induction of apoptosis in TRAIL-resistant human AGS cells assessed as fold increase in caspase 3/7 at 5 uM after 24 hrs by Caspase-Glo 3/7 assay kit; assay type: functional
[11] = tested on: AGS; test: Induction of apoptosis in TRAIL-resistant human AGS cells assessed as population of apoptotic cells after 6 hrs by annexin-V-FLOUS/ propidium iodide staining based flow cytometry in presence of TRAIL; assay type: functional
[12] = tested on: AGS; test: Induction of apoptosis in TRAIL-resistant human AGS cells assessed as increase in p53 protein level at 3 uM after 6 hrs by Western blotting analysis; assay type: functional, cell-based
[13] = tested on: AGS; test: Induction of mitochondrial membrane depolarization in human AGS cells assessed as depolarized cells after 24 hrs by JC-1 staining-based flow cytometric analysis (reference value: 27.1%); assay type: functional
[14] = tested on: AGS; test: Induction of apoptosis in TRAIL-resistant human AGS cells assessed as fold increase in caspase 3/7 at 3 uM after 24 hrs by Caspase-Glo 3/7 assay kit; assay type: functional
[15] = tested on: AGS; test: Induction of apoptosis in TRAIL-resistant human AGS cells assessed as decrease in cell viability at 3 uM after 24 hrs in presence of TRAIL (reference value: 9%); assay type: functional
[16] = tested on: AGS; test: Induction of apoptosis in TRAIL-resistant human AGS cells assessed as population of apoptotic cells after 6 hrs by annexin-V-FLOUS/ propidium iodide staining based flow cytometry in presence of pan-caspase inhibitor z-VAD-FMK; assay type: functional
[17] = tested on: AGS; test: Induction of apoptosis in TRAIL-resistant human AGS cells assessed as fold increase in caspase 3/7 at 3 uM after 24 hrs by Caspase-Glo 3/7 assay kit in presence of TRAIL; assay type: functional
[18] = tested on: AGS; test: Induction of apoptosis in TRAIL-resistant human AGS cells assessed as increase in death receptor 5 protein level at 3 uM after 6 hrs by Western blotting analysis; assay type: functional
[19] = tested on: AGS; test: Induction of apoptosis in TRAIL-resistant human AGS cells assessed as decrease in cell viability at 10 uM after 24 hrs in presence of TRAIL (reference value: 9%); assay type: functional

## CC(C)=CCc1c(-c2ccc(O)cc2O)oc2c3c(cc(O)c2c1=O)OC(C)(C)C=C3 [MORUSIN]
[1]
  Activity: 25%

## C=C(C)[C@H]1Cc2c(oc3c(CC=C(C)C)c(O)c(CC=C(C)C)c(O)c3c2=O)-c2c(O)cc(O)c(O)c21 [ARTORIGIDIN A]
[2]
  Activity: 26%

## O=c1cc(-c2ccc(O)c(O)c2)oc2cc(O)cc(O)c12 [LUTEOLIN]
[3]
  Activity: 9%

## CC(C)=CCc1c(-c2cc(O)c(O)cc2O)oc2c(CC=C(C)C)c3c(c(O)c2c1=O)C=CC(C)(C)O3 [HETEROPHYLLIN]
[4]
  Activity: 31%

## CC(C)=CCC/C(C)=C/Cc1c(O)c(CC=C(C)C)c(O)c2c(=O)c(CC=C(C)C)c(-c3cc(O)c(O)cc3O)oc12
[5]
  Activity: 30%

## CC(C)=CCc1c(-c2ccc(O)cc2O)oc2cc3c(c(O)c2c1=O)C=CC(C)(C)O3 [CUDRAFLAVONE B]
[1]
  Activity: 27%

## CC(C)=CCc1cc(/C=C/c2cc(O)cc(O)c2)cc(CC=C(C)C)c1O
[6]
  Activity: 25%

## CC(C)=CCc1c2c(c3oc(-c4cc(O)c(O)cc4O)c(CC=C(C)C)c(=O)c3c1O)C=CC(C)(C)O2
[4]
  Activity: 46%

## CC(C)=CCc1c(-c2cc(O)c(O)cc2O)oc2c3c(cc(O)c2c1=O)OC(C)(C)C=C3 [ARTONIN E]
[7]
  Activity: inactive
[8]
  inhibition (INH): 3.6%
[9]
  fold change (FC): 34.3
[10]
  fold change (FC): 11.1
[11]
  inhibition (INH): 32.7%
[12]
  Activity: Active
[13]
  Activity: 58.4%
[14]
  fold change (FC): 3.7
[15]
  Activity: 44%
[16]
  inhibition (INH): 2.9%
[17]
  fold change (FC): 12.2
[18]
  fold change (FC): 1.9

## C=C(C)[C@H]1Cc2c(oc3c4c(cc(O)c3c2=O)OC(C)(C)C=C4)-c2c(O)cc(O)c(O)c21 [ARTOBILOXANTHONE]
[19]
  Activity: 32%

## CC(C)=CCc1c(O)c(CC=C(C)C)c2oc(-c3cc(O)c(O)cc3O)c(CC=C(C)C)c(=O)c2c1O
[2]
  Activity: 30%

## COc1c(/C=C/c2cc(O)cc(O)c2)cc(CC=C(C)C)c(O)c1CC=C(C)C
[1]
  Activity: 40%
